In ChEMBL document CHEMBL3603798, “Computer-aided identification, synthesis, and biological evaluation of novel inhibitors for botulinum neurotoxin serotype A” (Bioorg Med Chem, 2015):
Active and inactive are the calls of the source. No cut-off for these calls is given here.

How the values were obtained:
[1] = molecular target: Botulinum neurotoxin type A (Clostridium botulinum, UniProt P0DPI0); test: Inhibition of Clostridium botulinum neurotoxin type A light chain by SNAPtide assay
[2] = molecular target: Botulinum neurotoxin type A (Clostridium botulinum) (UniProt P0DPI0); test: Inhibition of Clostridium botulinum neurotoxin type A light chain incoulated in mouse Neuro2a cells assessed as reduction in SNAP-25 cleavage at 10 uM incubated for 48 hrs by SDS-PAGE based Western blotting method; type: cell-based
[3] = Toxicity against mouse Neuro2a cells assessed as reduction in cell viability at 10 to 100 uM incubated for 48 hrs; type: cell-based; details: n2a

Chain of Botulinum neurotoxin type A (P0DPI0 2-448 limits assumed): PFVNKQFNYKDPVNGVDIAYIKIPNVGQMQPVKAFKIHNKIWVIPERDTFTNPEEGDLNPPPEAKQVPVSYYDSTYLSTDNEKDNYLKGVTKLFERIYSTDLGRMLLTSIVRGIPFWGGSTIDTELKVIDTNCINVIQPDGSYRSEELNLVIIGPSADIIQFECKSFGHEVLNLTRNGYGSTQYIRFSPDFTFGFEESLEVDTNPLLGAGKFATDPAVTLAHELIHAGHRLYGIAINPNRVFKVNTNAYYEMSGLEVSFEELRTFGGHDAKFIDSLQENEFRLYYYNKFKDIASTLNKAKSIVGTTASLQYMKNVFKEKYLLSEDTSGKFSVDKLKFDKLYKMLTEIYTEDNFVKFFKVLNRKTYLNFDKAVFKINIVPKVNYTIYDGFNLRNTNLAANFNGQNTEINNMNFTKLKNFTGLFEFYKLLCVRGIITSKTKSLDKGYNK
Chain of Botulinum neurotoxin type A (Clostridium botulinum) (P0DPI0 2-448 limits assumed): as above

| Structure (SMILES) | IC50 [1] | inhibition [2] | Activity [3] |
| --- | --- | --- | --- |
| O=c1c2cc3c(cc2n(Cc2nc(-c4ccc(C(F)(F)F)cc4)no2)c(=O)n1Cc1nc(-c2ccc(C(F)(F)F)cc2)no1)OCO3 | 16 µM | – | – |
| COC(=O)c1c(C)nc2n(CCN3CCCCC3)c3ccccc3n12 | 55 µM | – | – |
| COc1cccc(CN2C(=O)c3ccccc3[C@@H]2C(=O)NC2CCC(C)CC2)c1 (stereo not given in full) | 157 µM | – | – |
| N=C(N)NCCC[C@H](NC(=O)[C@@H](N)CCCNC(=N)N)C(=O)NCC(=O)N[C@@H](CS)C(=O)O | 31 µM | – | – |
| O=c1[nH]c2cc3c(cc2c(=O)n1CCc1nc(-c2ccc(C(F)(F)F)cc2)no1)OCO3 | 24 µM | Active | Non-toxic |
| CC[C@@H]1Oc2ccccc2N(CC(=O)NCCCN2CCC(Cc3ccccc3)CC2)C1=O | 154 µM | – | – |
| Cc1cc(NC(=S)N(CCCN2CCC[C@@H](C)C2)Cc2cccs2)ccc1Cl | 92 µM | – | – |
| Cc1ccc(-c2nc(SCC(=O)N3CCCC[C@@H]3C)c(S(=O)(=O)c3ccccc3)[nH]2)cc1 | 159 µM | – | – |
| O=C(COc1cccc(/C=C2\NC(=O)N(Cc3ccccc3F)C2=O)c1)Nc1ccc(F)cc1 | > 50 µM | – | – |
| O=C(COc1ccccc1/C=C1\NC(=O)N(Cc2ccccc2F)C1=O)Nc1ccc(F)cc1 | 22 µM | Active | Non-toxic |
| O=C(COc1ccc(/C=C2\NC(=O)N(Cc3ccccc3F)C2=O)cc1)Nc1ccc(F)cc1 | 26 µM | – | – |
